Results as given in patent US4647576A, “Trans-6-[2-(substitutedpyrrol-1-yl)alkyl]-pyran-2-one inhibitors of cholesterol synthesis” (Warner-Lambert Company, priority 1984, dated 1987).

Legend:
HMG-CoA reductase = molecular target: T1, HMG-CoA reductase (Rattus norvegicus, UniProt P51639); test: COR screen: conversion of 14C-HMG-CoA to 14C-mevalonate by purified HMG-CoA reductase; type: biochemical; conditions: purified enzyme preparation, footnote: adjusted for a standard IC50 value for compactin (internal standard)
T1 sequence (P51639 1-887): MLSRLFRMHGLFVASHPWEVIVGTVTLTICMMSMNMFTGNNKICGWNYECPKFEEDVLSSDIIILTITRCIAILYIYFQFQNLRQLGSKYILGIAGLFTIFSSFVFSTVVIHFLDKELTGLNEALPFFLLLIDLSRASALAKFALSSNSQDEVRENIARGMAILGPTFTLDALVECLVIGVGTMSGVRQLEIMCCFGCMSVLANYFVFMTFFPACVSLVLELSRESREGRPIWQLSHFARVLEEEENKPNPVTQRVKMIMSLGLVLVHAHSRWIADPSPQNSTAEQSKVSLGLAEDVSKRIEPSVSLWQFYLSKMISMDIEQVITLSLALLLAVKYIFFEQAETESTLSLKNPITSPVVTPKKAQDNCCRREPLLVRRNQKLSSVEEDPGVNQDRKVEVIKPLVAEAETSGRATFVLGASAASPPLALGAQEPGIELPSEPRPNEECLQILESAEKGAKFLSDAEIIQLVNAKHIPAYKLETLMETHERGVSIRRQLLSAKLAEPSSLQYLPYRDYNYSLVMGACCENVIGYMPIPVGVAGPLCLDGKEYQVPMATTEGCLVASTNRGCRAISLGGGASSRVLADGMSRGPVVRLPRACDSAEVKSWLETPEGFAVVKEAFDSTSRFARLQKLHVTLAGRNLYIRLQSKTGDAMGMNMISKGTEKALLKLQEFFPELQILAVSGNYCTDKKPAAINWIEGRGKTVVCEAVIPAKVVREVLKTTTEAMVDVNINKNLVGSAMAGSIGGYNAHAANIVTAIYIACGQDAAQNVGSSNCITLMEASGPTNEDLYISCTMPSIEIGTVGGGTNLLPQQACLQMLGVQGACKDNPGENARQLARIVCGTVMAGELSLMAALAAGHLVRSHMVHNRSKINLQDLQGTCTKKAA
Protocol: A second method (designated COR screen) employed the procedure detailed by T. Kita, et al., J. Clin. Invest., (1980), 66: 1094-1100. In this method, the amount of ^14 C-HMG-CoA converted to ^14 C-mevalonate in the presence of a purified enzyme preparation of HMG-CoA reductase was measured. The micromolar concentration of compound required for 50% inhibition of cholesterol synthesis was measured and recorded as an IC50 value.

[1] = tested on: sterol synthesis by rat liver homogenate; test: CSI screen: inhibition of sterol synthesis (14C-acetate incorporation into nonsaponifiable lipid) by rat liver homogenate; type: biochemical; conditions: one-hour period, footnote: adjusted for a standard IC50 value for compactin (internal standard)
Protocol: The ability of compounds of the present invention to inhibit the biosynthesis of cholesterol was measured by two methods. A first method (designated CSI screen) utilized the procedure described by R. E. Dugan et al., Archiv. Biochem. Biophys., (1972), 152, 21-27. In this method, the level of HMG-CoA enzyme activity in standard laboratory rats is increased by feeding the rats a chow diet containing 5% cholestyramine for four days, after which the rats are sacrificed.
The rat livers are homogenized, and the incorporation of cholesterol-^14 C-acetate into nonsaponifiable lipid by the rat liver homogenate is measured. The micromolar concentration of compound required for 50% inhibition of sterol synthesis over a one-hour period is measured, and expressed as an IC50 value.

Compound	IC50 (HMG-CoA reductase) [nM]	IC50 [1] [nM]
CC(C)c1ccc(-c2ccc(F)cc2)n1CC[C@H]1C[C@H](O)CC(=O)O1 (relative stereo) [Compound 1, trans-6-[2-[2-(4-fluorophenyl)-5-(1-methylethyl)-1H-pyrrol-1-yl]ethyl]tetrahydro-4-hydroxy-2H-pyran-2-one]	280	480
CC[C@H](C)C(=O)O[C@H]1CCC=C2C=C[C@H](C)[C@H](CC[C@@H]3C[C@@H](O)CC(=O)O3)[C@H]21 [Compound 5, Compactin, reference compound]	28	26
CC(C)c1c(Br)c(Br)c(-c2ccc(F)cc2)n1CC[C@H]1C[C@H](O)CC(=O)O1 (relative stereo) [Compound 3, 6-[2-[2-(4-fluorophenyl)-3,4 dibromo-5-(1-methylethyl)-1H-pyrrol-1-yl]ethyl]tetrahydro-4-hydroxy-trans-2H-pyran-2-one]	1	220
CC(C)c1c(Cl)c(Cl)c(-c2ccc(F)cc2)n1CC[C@H]1C[C@H](O)CC(=O)O1 (relative stereo) [Compound 2, 6-[2-[2-(4-fluorophenyl)-3,4-dichloro-5-(1-methylethyl)-1H-pyrrol-1-yl]ethyl]tetrahydro-4-hydroxy-trans-2H-pyran-2-one]	24	160
COC(=O)c1c(C(=O)OC)c(C(C)C)n(CC[C@@H]2C[C@@H](O)CC(=O)O2)c1-c1ccc(F)cc1 (relative stereo) [Compound 4, Dimethyl-2-(4-Fluorophenyl)-5-(1-methylethyl)-1-[2-(tetrahydro-4-hydroxy-6-oxo-2H-pyran-2-yl)ethyl]-1H-pyrrole-3,4-dicarboxylate]	80	110
